Assay results from patent publication US20080107707A1, “POLYMERIZABLE ANTIMICROBIAL COMPOSITION” (REGENTS OF THE UNIVERSITY OF COLORADO, priority 2006, published 2008).
Values after ≈ are worked out from the molar mass of the structure shown.

Tests used:
[1] = system: S. epidermidis ATCC 12228; test: Minimum bactericidal concentration (MBC), plating of broth dilution tubes; format: cell-based, Staphylococcus epidermidis
Method: The MBC is another parameter used to assess the usefulness of an antibacterial. It provides some measure of the concentration of agent required to kill bacteria, not just inhibit their growth. In this test, 10 μL of media from each tube were plated on trypticase soy agar (TSA) plates with 5% sheep blood (Becton, Dickinson, and Co., Sparks, Md.) and grown for 24 hr. at 37° C. The MBC was taken to be the lowest VPA concentration at which no colonies were observed.

[2] = system: S. epidermidis ATCC 12228; test: Minimum inhibitory concentration (MIC), broth dilution method; format: cell-based, Staphylococcus epidermidis
Method: The minimum inhibitory concentration (MIC) and minimum bactericidal concentration (MBC) of the monomer were determined by the broth dilution method. Various amounts of VPA were added to 1 mL of brain heart infusion media (BHI) (Becton, Dickinson, and Co., Sparks, Md.) along with 1×10^5 cfu of S. epidermidis ATCC 12228 (MicroBiologics, Inc., St. Cloud, Minn.) using aseptic technique. Cultures were incubated for 24 hr. at 37° C. The MIC was taken to be the lowest VPA concentration at which no turbidity was observed.

Molecule	MBC ([1]; Staphylococcus epidermidis, ATCC12228) [µM]	MIC (lowest concentration at which no turbidity was observed) ([2]; 1×10^5 cfu in 1 mL BHI, 24 hr at 37° C, mean ±std. dev.) [µg/mL]	MIC ([2]; S. epidermidis ATCC 12228, broth dilution) [µM]	MBC (lowest concentration at which no colonies were observed) ([1]; 10 μL plated on TSA 5% sheep blood, 24 hr at 37° C, mean ±std. dev.) [µg/mL]	MBC ([1]; S. epidermidis ATCC 12228) [µM]
CN[C@H](CC(C)C)C(=O)N[C@H]1C(=O)N[C@@H](CC(N)=O)C(=O)N[C@H]2C(=O)N[C@H]3C(=O)N[C@H](C(=O)N[C@H](C(=O)O)c4cc(O)cc(O)c4-c4cc3ccc4O)[C@H](O)c3ccc(c(Cl)c3)Oc3cc2cc(c3O[C@@H]2O[C@H](CO)[C@@H](O)[C@H](O)[C@H]2O[C@H]2C[C@](C)(N)[C@H](O)[C@H](C)O2)Oc2ccc(cc2Cl)[C@H]1O [vancomycin, reference compound]	1.12 ± 0.04 (≈ 1.62 µg/mL)	–	–	–	–
vancomycin-PEG(3400)-acrylate [VPA]	–	11.5 ± 0.8	2.35 ± 0.15	15 ± 1	3.0 ± 0.2
